In the supplement of paper PMC10307832:

What was measured:
Experiment in all cases: relative viability (nuclei count vs DMSO), 5 days (fraction); higher = more cells survive
[1] = compound: C(C(=O)C(=O)O)Br [Bromopyruvate] + CCNC(=O)c1noc(-c2cc(C(C)C)c(O)cc2O)c1-c1ccc(CN2CCOCC2)cc1 [Luminespib] (partner 0.01 µM)
Summary of the method: (§1)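 Cells from lung cancer lines were seeded into 1536-well plates and, one day later, dosed by pin tool. Treatments were either a single drug or a fixed dose of an anchor drug with five library-drug doses (not always all listed) in √10 steps. After 5 days, nuclei were stained in a one-step fixation (final 0.05% Triton X-100, 1% formaldehyde, 1 ug/ml Hoechst) and counted on 4× images, and relative viability is the treated-to-vehicle nuclei ratio, as the median of duplicate plates.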

[2] = compound: CC(O)(CS(=O)(=O)c1ccc(F)cc1)C(=O)Nc1ccc(C#N)c(C(F)(F)F)c1 [Bicalutamide] + C[C@]1(O)C[C@@H](c2nc(-c3ccc4ccc(-c5ccccc5)nc4c3)c3c(N)nccn32)C1 [Linsitinib] (partner 1 µM)
Summary of the method: as §1

[3] = compound: C(C(=O)C(=O)O)Br [Bromopyruvate] + Nc1ncn([C@H]2C[C@H](O)[C@@H](CO)O2)c(=O)n1 [Decitabine] (partner 2 µM)
Summary of the method: as §1

[4] = compound: C(C(=O)C(=O)O)Br [Bromopyruvate] + N=C(N)NC(=N)NCCc1ccccc1 [Phenformin] (partner 250 µM)
Summary of the method: as §1

COR-L23
relative viability ([1]; first compound 1 µM): 0.611 | relative viability ([1]; first compound 3.162 µM): 0.602 | relative viability ([1]; first compound 10 µM): 0.815 | relative viability ([1]; first compound 31.62 µM): 0.694 | relative viability ([1]; first compound 100 µM): 0.119 | relative viability ([2]; first compound 0.08 µM): 0.997 | relative viability ([2]; first compound 0.253 µM): 0.919 | relative viability ([2]; first compound 0.8 µM): 1.16 | relative viability ([2]; first compound 2.53 µM): 0.732 | relative viability ([3]; first compound 1 µM): 0.407 | relative viability ([3]; first compound 3.162 µM): 0.404 | relative viability ([3]; first compound 10 µM): 0.469 | relative viability ([3]; first compound 31.62 µM): 0.379 | relative viability ([3]; first compound 100 µM): 0.281 | relative viability ([4]; first compound 1 µM): 0.433 | relative viability ([4]; first compound 3.162 µM): 0.435 | relative viability ([4]; first compound 10 µM): 0.459 | relative viability ([4]; first compound 31.62 µM): 0.411 | relative viability ([4]; first compound 100 µM): 0.227

NCI-H838
relative viability ([1]; first compound 1 µM): 0.282 | relative viability ([1]; first compound 3.162 µM): 0.359 | relative viability ([1]; first compound 10 µM): 0.456 | relative viability ([1]; first compound 31.62 µM): 0.324 | relative viability ([1]; first compound 100 µM): 0.282 | relative viability ([2]; first compound 0.08 µM): 0.962 | relative viability ([2]; first compound 0.253 µM): 1 | relative viability ([2]; first compound 0.8 µM): 1 | relative viability ([2]; first compound 2.53 µM): 0.827 | relative viability ([3]; first compound 1 µM): 0.485 | relative viability ([3]; first compound 3.162 µM): 0.461 | relative viability ([3]; first compound 10 µM): 0.408 | relative viability ([3]; first compound 31.62 µM): 0.405 | relative viability ([3]; first compound 100 µM): 0.457 | relative viability ([4]; first compound 1 µM): 0.557 | relative viability ([4]; first compound 3.162 µM): 0.604 | relative viability ([4]; first compound 10 µM): 0.656 | relative viability ([4]; first compound 31.62 µM): 0.603 | relative viability ([4]; first compound 100 µM): 0.555

NCI-H2126
relative viability ([1]; first compound 1 µM): 0.888 | relative viability ([1]; first compound 3.162 µM): 0.892 | relative viability ([1]; first compound 10 µM): 0.943 | relative viability ([1]; first compound 31.62 µM): 0.896 | relative viability ([1]; first compound 100 µM): 0.874 | relative viability ([2]; first compound 0.08 µM): 0.737 | relative viability ([2]; first compound 0.253 µM): 0.724 | relative viability ([2]; first compound 0.8 µM): 0.731 | relative viability ([2]; first compound 2.53 µM): 0.68 | relative viability ([3]; first compound 1 µM): 0.625 | relative viability ([3]; first compound 3.162 µM): 0.603 | relative viability ([3]; first compound 10 µM): 0.543 | relative viability ([3]; first compound 31.62 µM): 0.582 | relative viability ([3]; first compound 100 µM): 0.564 | relative viability ([4]; first compound 1 µM): 0.556 | relative viability ([4]; first compound 3.162 µM): 0.534 | relative viability ([4]; first compound 10 µM): 0.518 | relative viability ([4]; first compound 31.62 µM): 0.54 | relative viability ([4]; first compound 100 µM): 0.513

BEN
relative viability ([1]; first compound 1 µM): 0.587 | relative viability ([1]; first compound 3.162 µM): 0.342 | relative viability ([1]; first compound 10 µM): 0.66 | relative viability ([1]; first compound 31.62 µM): 0.303 | relative viability ([1]; first compound 100 µM): 0.295 | relative viability ([2]; first compound 0.08 µM): 1.04 | relative viability ([2]; first compound 0.253 µM): 0.802 | relative viability ([2]; first compound 0.8 µM): 1.26 | relative viability ([2]; first compound 2.53 µM): 0.966 | relative viability ([3]; first compound 1 µM): 0.726 | relative viability ([3]; first compound 3.162 µM): 0.685 | relative viability ([3]; first compound 10 µM): 0.773 | relative viability ([3]; first compound 31.62 µM): 0.617 | relative viability ([3]; first compound 100 µM): 0.674 | relative viability ([4]; first compound 1 µM): 0.279 | relative viability ([4]; first compound 3.162 µM): 0.265 | relative viability ([4]; first compound 10 µM): 0.266 | relative viability ([4]; first compound 31.62 µM): 0.262 | relative viability ([4]; first compound 100 µM): 0.279

LCLC-103H
relative viability ([1]; first compound 1 µM): 0.963 | relative viability ([1]; first compound 3.162 µM): 0.998 | relative viability ([1]; first compound 10 µM): 1.05 | relative viability ([1]; first compound 31.62 µM): 0.938 | relative viability ([1]; first compound 100 µM): 0.878 | relative viability ([2]; first compound 0.08 µM): 1.04 | relative viability ([2]; first compound 0.253 µM): 1.04 | relative viability ([2]; first compound 0.8 µM): 1.14 | relative viability ([2]; first compound 2.53 µM): 1.05 | relative viability ([3]; first compound 1 µM): 0.757 | relative viability ([3]; first compound 3.162 µM): 0.764 | relative viability ([3]; first compound 10 µM): 0.797 | relative viability ([3]; first compound 31.62 µM): 0.77 | relative viability ([3]; first compound 100 µM): 0.825 | relative viability ([4]; first compound 1 µM): 0.343 | relative viability ([4]; first compound 3.162 µM): 0.338 | relative viability ([4]; first compound 10 µM): 0.371 | relative viability ([4]; first compound 31.62 µM): 0.362 | relative viability ([4]; first compound 100 µM): 0.365

EKVX
relative viability ([1]; first compound 1 µM): 0.824 | relative viability ([1]; first compound 3.162 µM): 0.883 | relative viability ([1]; first compound 10 µM): 1.22 | relative viability ([1]; first compound 31.62 µM): 0.811 | relative viability ([1]; first compound 100 µM): 1.02 | relative viability ([2]; first compound 0.08 µM): 1.06 | relative viability ([2]; first compound 0.253 µM): 1.04 | relative viability ([2]; first compound 0.8 µM): 1.06 | relative viability ([2]; first compound 2.53 µM): 0.894 | relative viability ([3]; first compound 1 µM): 0.36 | relative viability ([3]; first compound 3.162 µM): 0.353 | relative viability ([3]; first compound 10 µM): 0.319 | relative viability ([3]; first compound 31.62 µM): 0.371 | relative viability ([3]; first compound 100 µM): 0.331 | relative viability ([4]; first compound 1 µM): 0.256 | relative viability ([4]; first compound 3.162 µM): 0.24 | relative viability ([4]; first compound 10 µM): 0.243 | relative viability ([4]; first compound 31.62 µM): 0.246 | relative viability ([4]; first compound 100 µM): 0.233

LXF-289
relative viability ([1]; first compound 1 µM): 0.744 | relative viability ([1]; first compound 3.162 µM): 0.71 | relative viability ([1]; first compound 10 µM): 0.779 | relative viability ([1]; first compound 31.62 µM): 0.808 | relative viability ([1]; first compound 100 µM): 0.753 | relative viability ([2]; first compound 0.08 µM): 0.962 | relative viability ([2]; first compound 0.253 µM): 0.92 | relative viability ([2]; first compound 0.8 µM): 1 | relative viability ([2]; first compound 2.53 µM): 0.972 | relative viability ([3]; first compound 1 µM): 0.398 | relative viability ([3]; first compound 3.162 µM): 0.417 | relative viability ([3]; first compound 10 µM): 0.419 | relative viability ([3]; first compound 31.62 µM): 0.388 | relative viability ([3]; first compound 100 µM): 0.397 | relative viability ([4]; first compound 1 µM): 0.525 | relative viability ([4]; first compound 3.162 µM): 0.537 | relative viability ([4]; first compound 10 µM): 0.516 | relative viability ([4]; first compound 31.62 µM): 0.504 | relative viability ([4]; first compound 100 µM): 0.531

ABC-1
relative viability ([1]; first compound 1 µM): 0.519 | relative viability ([1]; first compound 3.162 µM): 0.823 | relative viability ([1]; first compound 10 µM): 0.575 | relative viability ([1]; first compound 31.62 µM): 0.499 | relative viability ([1]; first compound 100 µM): 0.234 | relative viability ([2]; first compound 0.08 µM): 0.912 | relative viability ([2]; first compound 0.253 µM): 0.889 | relative viability ([2]; first compound 0.8 µM): 0.768 | relative viability ([2]; first compound 2.53 µM): 0.861 | relative viability ([3]; first compound 1 µM): 0.888 | relative viability ([3]; first compound 100 µM): 0.885 | relative viability ([4]; first compound 1 µM): 0.24 | relative viability ([4]; first compound 3.162 µM): 0.262 | relative viability ([4]; first compound 10 µM): 0.271 | relative viability ([4]; first compound 31.62 µM): 0.262 | relative viability ([4]; first compound 100 µM): 0.239

NCI-H661
relative viability ([1]; first compound 1 µM): 0.882 | relative viability ([1]; first compound 3.162 µM): 0.969 | relative viability ([1]; first compound 10 µM): 0.964 | relative viability ([1]; first compound 31.62 µM): 0.91 | relative viability ([1]; first compound 100 µM): 0.892 | relative viability ([2]; first compound 0.08 µM): 0.538 | relative viability ([2]; first compound 0.253 µM): 0.63 | relative viability ([2]; first compound 0.8 µM): 0.612 | relative viability ([2]; first compound 2.53 µM): 0.61 | relative viability ([3]; first compound 1 µM): 0.505 | relative viability ([3]; first compound 3.162 µM): 0.571 | relative viability ([3]; first compound 10 µM): 0.654 | relative viability ([3]; first compound 31.62 µM): 0.546 | relative viability ([3]; first compound 100 µM): 0.523 | relative viability ([4]; first compound 1 µM): 0.294 | relative viability ([4]; first compound 3.162 µM): 0.263 | relative viability ([4]; first compound 10 µM): 0.237 | relative viability ([4]; first compound 31.62 µM): 0.287 | relative viability ([4]; first compound 100 µM): 0.276
